Test system: 323965-272-R-J2-PDC complex spheroid viability
Experiment: Anticancer human tumor 323965-272-R-J2-PDC patient-derived pancreatic carcinoma cell line growth inhibition [CLK]
Conditions: for viability, T/C: stronger effect = lower value; for IC50: curve of first compound; active = viability on the fitted dose curve at most 10% of control; inactive = the rest
Method in brief: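 Multi-cell-type spheroids combined patient-derived tumor cells with HUVEC endothelial cells and human mesenchymal stem cells. Paired agents were dosed in half-log steps down from about clinical Cmax, or from 10 microM where Cmax was unknown.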

[1] = second compound 0.0316 µM, first compound 0.0316 µM
[2] = second compound 0.0316 µM, first compound 0.1 µM
[3] = second compound 0.0316 µM, first compound 0.316 µM
[4] = second compound 0.0316 µM, first compound 1 µM
[5] = second compound 0.0316 µM, first compound 3.16 µM
[6] = second compound 0.0316 µM, first compound 10 µM
[7] = second compound 0.1 µM, first compound 0.0316 µM
[8] = second compound 0.1 µM, first compound 0.1 µM
[9] = second compound 0.1 µM, first compound 0.316 µM
[10] = second compound 0.1 µM, first compound 1 µM
[11] = second compound 0.1 µM, first compound 3.16 µM
[12] = second compound 0.1 µM, first compound 10 µM
[13] = second compound 0.316 µM, first compound 0.0316 µM
[14] = second compound 0.316 µM, first compound 0.1 µM
[15] = second compound 0.316 µM, first compound 0.316 µM
[16] = second compound 0.316 µM, first compound 1 µM
[17] = second compound 0.316 µM, first compound 3.16 µM
[18] = second compound 0.316 µM, first compound 10 µM
[19] = second compound 1 µM, first compound 0.0316 µM
[20] = second compound 1 µM, first compound 0.1 µM
[21] = second compound 1 µM, first compound 0.316 µM
[22] = second compound 1 µM, first compound 1 µM
[23] = second compound 1 µM, first compound 3.16 µM
[24] = second compound 1 µM, first compound 10 µM
[25] = second compound 3.16 µM, first compound 0.0316 µM
[26] = second compound 3.16 µM, first compound 0.1 µM
[27] = second compound 3.16 µM, first compound 0.316 µM
[28] = second compound 3.16 µM, first compound 1 µM
[29] = second compound 3.16 µM, first compound 3.16 µM
[30] = second compound 3.16 µM, first compound 10 µM
[31] = second compound 10 µM, first compound 0.0316 µM
[32] = second compound 10 µM, first compound 0.1 µM
[33] = second compound 10 µM, first compound 0.316 µM
[34] = second compound 10 µM, first compound 1 µM
[35] = second compound 10 µM, first compound 3.16 µM
[36] = second compound 10 µM, first compound 10 µM
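Note: spheroids exposed to agents for seven days before readout.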
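Throughout, for viability, T/C: percent of DMSO vehicle control wells so 100% = untreated growth.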

CNC(=O)c1ccc(Nc2nc(OC3CCCC3)c3c(-c4ccc5nc(C)oc5c4)c[nH]c3n2)c(OC)c1
inactive: viability, T/C (compound 0.1 µM) 87.2% [middle of 12 runs] | viability, T/C (compound 0.316 µM) 65.7% [middle of 12 runs] | viability, T/C (compound 1 µM) 49.8% [middle of 12 runs] | viability, T/C (compound 3.16 µM) 44.7% [middle of 12 runs] | viability, T/C (compound 10 µM) 47.2% [middle of 12 runs]

CC(Nc1ccc2c(c1)OCCn1cc(N3C(=O)OCC3C(F)F)nc1-2)C(N)=O (centres undefined) + CNC(=O)c1ccc(Nc2nc(OC3CCCC3)c3c(-c4ccc5nc(C)oc5c4)c[nH]c3n2)c(OC)c1
< 31.6 nM: IC50 (second compound 1 µM) | IC50 (second compound 3.16 µM) | IC50 (second compound 10 µM)
> 10000 nM: IC50 (second compound 0.0316 µM) | IC50 (second compound 0.1 µM)
inactive: viability, T/C [1] 110% | viability, T/C [2] 97.7% | viability, T/C [3] 80.4% | viability, T/C [4] 68.9% | viability, T/C [5] 64% | viability, T/C [6] 52% | viability, T/C [7] 89.7% | viability, T/C [8] 74.6% | viability, T/C [9] 73.9% | viability, T/C [10] 71.6% | viability, T/C [11] 58.4% | viability, T/C [12] 50.5% | viability, T/C [13] 63.6% | viability, T/C [14] 59.5% | viability, T/C [15] 48.5% | viability, T/C [16] 43.1% | viability, T/C [17] 39.9% | viability, T/C [18] 39.2% | viability, T/C [19] 43.4% | viability, T/C [20] 36.5% | viability, T/C [21] 33% | viability, T/C [22] 29.6% | viability, T/C [23] 30.1% | viability, T/C [24] 27.7% | viability, T/C [25] 34.8% | viability, T/C [26] 35.6% | viability, T/C [27] 30.7% | viability, T/C [28] 27.8% | viability, T/C [29] 30.7% | viability, T/C [30] 21.7% | viability, T/C [31] 42% | viability, T/C [32] 33.8% | viability, T/C [33] 28% | viability, T/C [34] 28.8% | viability, T/C [35] 28% | viability, T/C [36] 20.9%
290 nM: IC50 (second compound 0.316 µM)

COc1cccc2c1C(=O)c1c(O)c3c(c(O)c1C2=O)CC(O)(C(=O)CO)CC3OC1CC(N)C(O)C(C)O1 (centres undefined) + CNC(=O)c1ccc(Nc2nc(OC3CCCC3)c3c(-c4ccc5nc(C)oc5c4)c[nH]c3n2)c(OC)c1
135 nM: IC50 (second compound 0.1 µM)
active: viability, T/C [6] 0.64% | viability, T/C [12] 0.62% | viability, T/C [18] 0.67% | viability, T/C [23] 9.89% | viability, T/C [24] 0.56% | viability, T/C [29] 7.23% | viability, T/C [30] 0.56% | viability, T/C [35] 6.06% | viability, T/C [36] 0.58%
< 31.6 nM: IC50 (second compound 0.316 µM) | IC50 (second compound 1 µM) | IC50 (second compound 3.16 µM) | IC50 (second compound 10 µM)
104 nM: IC50 (second compound 0.0316 µM)
inactive: viability, T/C [1] 69.4% | viability, T/C [2] 38.1% | viability, T/C [3] 41.5% | viability, T/C [4] 28.1% | viability, T/C [5] 19.5% | viability, T/C [7] 73.2% | viability, T/C [8] 44.8% | viability, T/C [9] 39.6% | viability, T/C [10] 28% | viability, T/C [11] 19.7% | viability, T/C [13] 48% | viability, T/C [14] 44.1% | viability, T/C [15] 29.9% | viability, T/C [16] 22.7% | viability, T/C [17] 13.4% | viability, T/C [19] 40.8% | viability, T/C [20] 30% | viability, T/C [21] 22.7% | viability, T/C [22] 17.4% | viability, T/C [25] 30.6% | viability, T/C [26] 30.9% | viability, T/C [27] 20.8% | viability, T/C [28] 13.7% | viability, T/C [31] 37.2% | viability, T/C [32] 25.6% | viability, T/C [33] 24.2% | viability, T/C [34] 15.4%

— PubChem BioAssay AID2060619 (Molecular Pharmacology Branch, DTP, NCI, 2025)
